Results on 44 compounds are retold here after paper PMC12670160, “A drug-repurposing screen of FDA- and EMA-approved drugs identifies two NF-κB inhibitors active against eumycetoma” (Journal of Antimicrobial Chemotherapy, 2025).

In brackets after ≈: the same amount, converted by molar mass. Where a name gives a salt, the structure may show the parent alone. A value given as a limit tells only on which side of the number the result lay.

One data set deals with M. mycetomatis strain mm55. Kind of data set: IC50 and MIC determination, CellTiter-Glo, strain mm55. Format: cell-based, Madurella mycetomatis. To be noted: Madurella mycetomatis, concentration inhibiting 50% of fungal hyphae growth. (In ATP-based viability assays light output follows the ATP content of the culture.)
As for `C=C1CCN([C@H](C)[C@](O)(Cn2cncn2)c2ccc(F)cc2F)CC1` [Efinaconazole], half-maximal inhibition (IC50) was put at 0.04 µM.
`C=C(c1ccccc1OCc1cccc(Cl)c1)n1ccnc1` [Cloconazole HCl] came in with an IC50 of 0.85 µM.

The data set is the same for the next values; noted with them: Madurella mycetomatis, concentration with complete growth inhibition.
In turn, `C=C1CCN([C@H](C)[C@](O)(Cn2cncn2)c2ccc(F)cc2F)CC1` [Efinaconazole] displayed a minimal inhibitory concentration (MIC) of 0.06 µM (≈ 0.0209 µg/mL).
For `C=C(c1ccccc1OCc1cccc(Cl)c1)n1ccnc1` [Cloconazole HCl], the minimal inhibitory concentration (MIC) is 1 µM. This MIC is about 17-fold higher than that of the compound before.

The test system of the next data set is M. mycetomatis strain P1. The data set can be described thus: IC50 and MIC determination, CellTiter-Glo, strain P1. Format: cell-based, Madurella mycetomatis. To be noted: Madurella mycetomatis, P1.
In the case of `C=C1CCN([C@H](C)[C@](O)(Cn2cncn2)c2ccc(F)cc2F)CC1` [Efinaconazole], the IC50 is below 0.03 µM and 0.03 µM (≈ 0.0105 µg/mL) was the least that counted as inhibitory (MIC).
For `C=C(c1ccccc1OCc1cccc(Cl)c1)n1ccnc1` [Cloconazole HCl] the same measures were 0.74 µM and 1 µM.

The subject of the next data set is M. mycetomatis strain I1. Kind of data set: IC50 and MIC determination, CellTiter-Glo, strain I1. The class given is cell-based, Madurella mycetomatis. The following applies: Madurella mycetomatis, I1.
As to `C=C1CCN([C@H](C)[C@](O)(Cn2cncn2)c2ccc(F)cc2F)CC1` [Efinaconazole], inhibition was half-maximal at 0.05 µM (IC50) and it took 0.06 µM (≈ 0.0209 µg/mL) to inhibit growth (MIC).
The matching figures for `C=C(c1ccccc1OCc1cccc(Cl)c1)n1ccnc1` [Cloconazole HCl]: 0.41 µM and 0.5 µM.

The subject of another data set is M. mycetomatis. Kind of data set: In vitro susceptibility, averages over M. mycetomatis isolates (average metabolic activity at 2 µM, mean MIC). The class given is cell-based. The following applies: Madurella mycetomatis, 96 h, 4 days at 37°C, CellTiter-Glo, average of 3 isolates, 20% or below = inhibition. The method, then:
M. mycetomatis isolate MM55 was used to screen the Oncode library. This strain was kindly provided by Prof. […] The three M. mycetomatis isolates were identified by ITS sequencing and maintained at −80°C at Erasmus MC. Prior to in vitro screening, isolates were cultured on Sabouraud agar plates (BD, Erembodegem, Belgium) at 37°C.
The Oncode Drug Repurposing library was based on the drug repurposing library from the Drug Repurposing Hub of the Broad Institute and recreated by the Oncode institute.[13] […] Each well of the 384-well plates contained 0.6 µL of a 200 µM stock concentration of compound, resulting in a final concentration of 2 µM when the fungus was added. […] Furthermore, this concentration could also be reached in the G. mellonella larvae.[8],[11] The prepared 384-well plates were transferred on dry ice to the Erasmus MC and stored at −80°C until they were screened.
Each plate also contained a growth control (60 µL of M. mycetomatis hyphal suspension, plus 0.6 µL of DMSO) and a negative control (60 µL of culture medium, plus 0.6 µL of DMSO). Plates were then incubated for 4 days at 37°C, after which 30 µL of CellTiter-Glo 3D Cell Viability reagent was added to every well.[19] After 25 min of incubation at room temperature, the luminescence was measured with a CytoFluor Series 4000 luminometer (PerSeptive Biosystems, Framingham, MA, USA). To determine the metabolic activity, the following formula was used:
Percentagemetabolicactivity=(Absorbancetestluminensence−AbsorbanceNCluminensence/AbsorbanceGCluminensence−AbsorbanceNCluminensence)×100
where, GC is growth control and NC is negative control. The luminescence measured for the GC is considered as 100% metabolic activity. The luminescence for the NC is considered as 0% metabolic activity.
`C=C1CCN([C@H](C)[C@](O)(Cn2cncn2)c2ccc(F)cc2F)CC1` [Efinaconazole] gave an activity at 2 µM of 0%.
For `C=C(c1ccccc1OCc1cccc(Cl)c1)n1ccnc1` [Cloconazole HCl], the activity at 2 µM amounted to 1.7%.

A further data set has as its system M. mycetomatis strain mm55.
Assay: not given
The following applies: m. mycetomatis hyphae, 96 h, 2 µM.
Consider `Cc1cnc(Nc2ccc(F)cc2Cl)nc1-c1c[nH]c(C(=O)N[C@H](CO)c2cccc(Cl)c2)c1` [ONC0005411, vx11e], for which the “% viability” value is 117%.
Turning to `CCCC(C)C1(CC)C(=O)NC(=S)NC1=O` (centres unmarked) [ONC0001983, thiopental], the “% viability” value stood at 75.11%.
As for `CC[C@@]1(O)C(=O)OCc2c1cc1n(c2=O)Cc2cc3cc(O)ccc3nc2-1` [ONC0005199, 10hydroxycamptothecin], the “% viability” value turned out to be 143.5%.
As to `C[N+]12CCC(CC1)C(OC(=O)C(O)(c1ccccc1)c1ccccc1)C2` (centres unmarked) [ONC0000315, clidinium bromide], the “% viability” value was found to be 88.97%.
On the same count and under the same terms, the figure for `CCN(CC)C(C)C(=O)c1ccccc1` (centres unmarked) [ONC0002292, amfepramone] is 71.71%; for `CC(C)OC(=O)C(C)NP(=O)(COC(C)Cn1cnc2c(N)ncnc21)Oc1ccccc1` (centres unmarked) [ONC0004548, tenofovir alafenamide gs7340] it is 45.02%.
As for `Cc1cc(Nc2cc(N3CCN(C)CC3)nc(Sc3ccc(NC(=O)C4CC4)cc3)n2)[nH]n1` [ONC0004696, vx680 mk0457 tozasertib], the “% viability” value is reported as 120.2%.
The same measure, in the same setting: the figure for `CC(C)(C)c1cc(C(C)(C)C)c(NC(=O)c2c[nH]c3ccccc3c2=O)cc1O` [ONC0004880, ivacaftor vx770] is 126.9%.
With `CC(C)CN(C[C@@H](O)[C@H](Cc1ccccc1)NC(=O)O[C@H]1CCOC1)S(=O)(=O)c1ccc(N)cc1` [ONC0003406, amprenavir], the “% viability” value turned out to be 51.58%.
For the compound `COC(=O)[C@@H]1C[C@H](OC(C)=O)C(=O)[C@H]2[C@@]1(C)CC[C@H]1C(=O)O[C@H](c3ccoc3)C[C@]21C` [ONC0003459, salvinorin a], the “% viability” value was 35.37%.
As to `O=P1(N(CCCl)CCCl)NCCCO1` (centres unmarked) [ONC0000336, cyclophosphamide], the “% viability” value came out at 62%.
On to `CCOP(=S)(OCC)Oc1cc(C)nc(C(C)C)n1` [ONC0003874, dimpylate], for which the “% viability” value is on record as 60.75%.
On the same count and under the same terms, the value for `COc1cc(NC(=O)Nc2cccc(CNC(=O)O[C@H]3CCOC3)c2)ccc1-c1cnco1` [ONC0001842, merimepodib] was 78.29%.
Regarding `O=C(O)[C@]1(Cc2cccc(Nc3nccs3)n2)CC[C@@H](Oc2cccc(Cl)c2F)CC1` [ONC0005246, mk5108 vx689], the “% viability” value worked out at 132.5%.
On to `O=c1ncn2nc(Sc3ccc(F)cc3F)ccc2c1-c1c(Cl)cccc1Cl` [ONC0004865, vx745], for which the “% viability” value is 118.9%.
Consider `CC(=O)Oc1ccccc1C(=O)Nc1ncc([N+](=O)[O-])s1` [ONC0002436, nitazoxanide], for which the “% viability” value is given as 87.75%.
Take `CC(C)(C)c1ccc(-c2nc3ccccc3[nH]2)cc1` [ONC0004834, zln005]: the “% viability” value was determined as 87.04%.
The same measure, in the same setting: the figure for `CC(C)NCCCn1c(Sc2cc3c(cc2I)OCO3)nc2c(N)ncnc21` [ONC0002276, puh71] is 67.16%; for `Cc1ccc(NC(=O)C2(c3ccc4c(c3)OC(F)(F)O4)CC2)nc1-c1cccc(C(=O)O)c1` [ONC0004867, vx809 lumacaftor] it is 108.5%.
Same read-out and setting: the figure for `CCC1/C=C(\C)CC(C)CC(OC)C2OC(O)(C(=O)C(=O)N3CCCCC3C(=O)OC(/C(C)=C/C3CCC(O)C(OC)C3)C(C)C(O)CC1=O)C(C)CC2OC` (centres unmarked) [ONC0004338, ascomycin fk520] is 150.4%; for `CCC[C@H](NC(=O)[C@@H]1[C@H]2CCC[C@H]2CN1C(=O)[C@@H](NC(=O)[C@@H](NC(=O)c1cnccn1)C1CCCCC1)C(C)(C)C)C(=O)C(=O)NC1CC1` [ONC0004652, telaprevir vx950] it is 71.4%.
Consider `CC(C)(O)CNc1nc(Nc2ccnc(C(F)(F)F)c2)nc(-c2cccc(C(F)(F)F)n2)n1` [ONC0001138, enasidenib], for which the “% viability” value is 67.01%.
On to `COc1cc2c(c(OC)c1OC)-c1ccc(OC)c(=O)cc1[C@@H](NC(C)=O)CC2` [ONC0000317, colchicine], for which the “% viability” value worked out at 73.45%.
Consider `NC(=O)c1ccc(N(C(N)=O)c2c(F)cccc2F)nc1-c1ccc(F)cc1F` [ONC0004787, vx702], for which the “% viability” value came to 67.05%.
The same measure, in the same setting: the figure for `CC1(C)CN(C(=O)c2ccc(-c3cccc4nc(NC(=O)C5CC5)nn34)cc2)C1` [ONC0001278, solcitinib] is 60.54%; for `Cc1sc2c(c1C)C(c1ccc(Cl)cc1)=N[C@@H](CC(=O)Nc1ccc(O)cc1)c1nnc(C)n1-2` [ONC0005184, otx015] it is 99.78%; for `Cn1c(=O)n(-c2ccc(C(C)(C)C#N)cc2)c2c3cc(-c4cnc5ccccc5c4)ccc3ncc21` [ONC0005249, dactolisib bez235 nvpbez235] it is 133.4%.
Same read-out and setting: the figure for `CCO[C@H]1OC(=O)C[C@@H]1NC(=O)[C@@H]1CCCN1C(=O)[C@@H](NC(=O)c1ccc(N)c(Cl)c1)C(C)(C)C` [ONC0004605, belnacasan vx765] is 74.26%; for `CC(C)(CO)c1cc2cc(NC(=O)C3(c4ccc5c(c4)OC(F)(F)O5)CC3)c(F)cc2n1C[C@@H](O)CO` [ONC0004399, vx661] it is 112.4%; for `CC[C@H]1OC(=O)[C@H](C)[C@@H](O[C@H]2C[C@@](C)(OC)[C@@H](O)[C@H](C)O2)[C@H](C)[C@@H](O[C@@H]2O[C@H](C)C[C@H](N(C)C)[C@H]2O)[C@](C)(O)C[C@@H](C)[C@@H]2N[C@@H](COCCOC)O[C@H]([C@H]2C)[C@]1(C)O` [ONC0005551, dirithromycin] it is 98.9%.
As to `CNCc1ccc(-c2cc(-c3nc(-c4ccc(S(=O)(=O)C(C)C)cc4)cnc3N)on2)cc1` [ONC0005048, ve822], the “% viability” value worked out at 77.72%.
`O=C(O)C[C@H]1CC[C@H](c2ccc(-c3ccc(Nc4ccc(C(F)(F)F)nc4)cn3)cc2)CC1` [ONC0001945, pradigastat]: the “% viability” value is 103.8%.
`CCC(=O)O[C@@H]1CC(=O)O[C@H](C)C/C=C/C=C/[C@H](O)[C@H](C)C[C@H](CC=O)[C@H](O[C@@H]2O[C@H](C)[C@@H](O[C@H]3C[C@@](C)(O)[C@@H](OC(=O)CC)[C@H](C)O3)[C@H](N(C)C)[C@H]2O)[C@H]1OC` [ONC0000323, midecamycin]: the “% viability” value is 88.92%.
The same measure, in the same setting: the value for `c1ccc2oc(C3=NCCN3)cc2c1` [ONC0002719, 2bfi] was 76.35%; that for `O=C(Nc1nc2cccc(-c3ccc(CN4CCS(=O)(=O)CC4)cc3)n2n1)C1CC1` [ONC0001023, filgotinib] was 70.26%.
Turning to `CC[C@@](C)(Nc1ccnc(-c2c[nH]c3ncccc23)n1)C(=O)NCC(F)(F)F` [ONC0001022, decernotinib], the “% viability” value is reported as 66.72%.
Take `O=C(O)CCCc1ccc(N(CCCl)CCCl)cc1` [ONC0000730, chlorambucil]: the “% viability” value amounted to 84.26%.
In the case of `CS[C@H]1SC[C@H]2C(=O)N(C)[C@@H](C(C)C)C(=O)OC[C@@H](NC(=O)c3cnc4ccccc4n3)C(=O)N[C@@H](C)C(=O)N(C)[C@@H]1C(=O)N(C)[C@@H](C(C)C)C(=O)OC[C@@H](NC(=O)c1cnc3ccccc3n1)C(=O)N[C@@H](C)C(=O)N2C` [ONC0004195, echinomycin], the “% viability” value was 114.7%.
Consider `CC(C)(C)C#Cc1cc(N(C(=O)[C@H]2CC[C@H](C)CC2)[C@H]2CC[C@@H](O)CC2)c(C(=O)O)s1` [ONC0004853, lomibuvir vx222 vch222], for which the “% viability” value came out at 92.92%.
As to `COc1ccc2c(O[C@@H]3C[C@H]4C(=O)N[C@]5(C(=O)NS(=O)(=O)C6CC6)C[C@H]5/C=C\CCCCN(C)C(=O)[C@@H]4C3)cc(-c3nc(C(C)C)cs3)nc2c1C` [ONC0000991, simeprevir], the “% viability” value stood at 85.85%.
The same measure, in the same setting: the value for `COc1cccc([C@]2(O)CCCC[C@H]2CN(C)C)c1` [ONC0004178, tramadol hydrochloride] was 135.3%.

Still in this data set, the particulars now being: primary screen, metabolic activity vs growth control; 96 h, 2 µM; inhibitor.
As to gonadorelin acetate [ONC0002245], the “% viability” value came out at 141.9%.

As usually defined, the IC50 is the concentration needed to halve the response being measured. Lower therefore signals inhibition by little substance. By MIC is commonly meant the smallest concentration in the dilution series that meets the test's criterion for growth inhibition. Low readings indicate a more susceptible organism, high ones a less susceptible organism.
